Laboratory results as given in patent US12150940B2, “WASp-protecting small molecules, compositions, methods and uses thereof in the treatment of innate and acquired immune-related disorders or conditions” (BAR ILAN UNIVERSITY, priority 2016, dated 2024).

Experiments:
PBMCs = assay: Lymphocyte activation in PBMCs (CD69 and activated LFA-1, flow cytometry); assay type: cell-based, human; details: PBMCs stimulated with PMA and Ionomycin, vs control
Experimental: Figures show 1×10^6 PBMC cells/ml stimulated with PMA and Ionomycin that were treated with DMSO or WASp-binding SMCs. After incubation, the cells were stained with PE-Cy5™-conjugated mouse anti-human CD69 and lymphocyte activation was measured by flow-cytometry as described in the Experimental procedures. Histograms of DMSO versus SMC #6 (FIG. 8A), SMC #30 (FIG. 8B), SMC #33 (FIG. 8C), and SMC #34 (FIG. 8D) are presented and represent three independent experiments.
After incubation, the cells were stained with anti-activated LFA-1 antibody (KIM127), followed by staining with Alexa488-Fluor goat anti-mouse IgG1 secondary antibody, and lymphocyte activation was measured by flow-cytometry as described in the Experimental procedures. Histogram of negative control versus SMC #6 is presented.
PBMCs or Jurkat cells (about 3×10^5 cells) were incubated for 4 h, at 37° C. with 50 ng/ml PMA and 250 ng/ml lonomycin, or 40 ng/ml PMA and 6 μM Ionomycin, respectively, or left untreated. After incubation, the cells were collected and stained with 1 μg/ml anti-active human LFA-1 antibody (purified from KIM127 hybridoma sup, ATCC Cat #: CRL-2838, Sigma) for 30 min in 37° C., followed by staining with Alexa488-Fluor goat anti-mouse IgG1 secondary antibody (Molecular Probes, Cat #: A-21121), 30 min on ice. Cells were then co-stained with PE-Cy5™-conjugated mouse anti-human CD69 (BD Pharmingen, Cat #: 555532) to measure lymphocyte activation.
Lymphocyte activation is a hallmark of a normal immune response. To test whether treatment with WASp-binding SMCs could upregulate lymphocyte activation, freshly-isolated PBMCs were incubated with SMCs or control (solvent only) and stimulated with PMA and lonomycin. The cells were then stained with two different antibodies, which recognize two lymphocyte activation markers, CD69 and an epitope exposed at the active conformation of the integrin LFA-1 (KIM127). Both were detected by flow-cytometry.

Jurkat T cells = assay: Lymphocyte migration on ICAM-1/SDF-1α-coated cover glasses; assay type: cell-based, human; details: tracked over 20 min, mean ± SE
Experimental: Jurkat T cells were pretreated with DMSO or the indicated WASp-binding SMCs, and cell migration on ICAM-1/SDF-1α-coated cover glasses was tracked over a 20-min period, as described in Experimental procedures. Each line in FIG. 10A represents one cell. The tracks of five representative cells from each treatment are presented.
Error bars represent the SE from the mean. P values versus DMSO-treated control cells are presented and were calculated by two-tailed Student's t-test.
Approximately 1×10^5 lymphocytes were seeded over chambered coverslips (LabTek) pre-coated with 6 μg/ml ICAM-1 and 2 μg/ml SDF-1α. Cells were incubated at 37° C., 5% CO2 and DIC images were acquired with the Zeiss Observer Z1 inverted microscope every 5 s for 20 min under a 20× objective lens using Zen software. The random movement (Displacement and velocity) of the cells was automatically tracked and analyzed using TrackMate plugin of ImageJ software. An individual trace was assigned to each of the analyzed cells.
A common theme of active lymphocytes is their high migratory ability. This enables them to move within tissues and reach and engage target cells (Burkhardt et al, 2008). Because WASp plays a role in cellular motility, the ability of WASp-binding SMCs to effectively enhance the migration of lymphocytes was tested. The random movement of SMC-treated or control cells was automatically tracked and analyzed using live microscopy, as described in Experimental procedures.

WIP-WASp interaction = molecular target: T1, WIP-WASp interaction (Homo sapiens, UniProt P42768, K230R/R34Q); assay: FRET analysis of WIP-WASp interaction in activated T-cells expressing CFP-WASp and YFP-WIP; assay type: cell-based; details: anti-CD3 stimulatory coverslips, fixed after 5 min; mean ± SE
T1 construct: expressed in transfected cells
Experimental: FIG. 13A: Jurkat T cells stably expressing CFP-WASp and YFP-WIP were treated with WASp-binding SMC #6, SMC #30, SMC #33, SMC #34 or control. The cells were then plated on stimulatory coverslips (coated with an anti-CD3 antibody), and fixed after 5 min. Cells were imaged by confocal microscope, and FRET efficiency was measured by the donor-sensitized acceptor emission technology (see Experimental procedures for details).
FIG. 13B: graph summarizing the percentage FRET efficiency in cells plated on the stimulatory coverslips, with the indicated treatment. Data are from four independent experiments. Error bars represent the SE from the mean. P values were calculated by two-tailed Student's t-test.
Spreading assays were performed as previously described (Fried et al, 2014; Barda-Saad 2005). Briefly, T cells (2×10^6 cells/ml) were seeded on the bottom of chambered cover glasses (LabTek) that were pre-coated with anti-CD3 stimulatory monoclonal antibodies (10 μg/ml). The cells were incubated in imaging buffer [RPMI without phenol red containing 10% fetal calf serum (FCS) and 25 mM HEPES] at 37° C., 5% CO2, for the times indicated in the figure legends. Cells were fixed for 25 min with 4% paraformaldehyde in phosphate-buffered saline (PBS) and then were washed three times with PBS.
Double-color FRET was performed as described previously (Barda-Saad et al, 2005; Pauker, 2011, Pauker, 2012). […] The non-FRET components were calculated and removed with calibration curves derived from images of single-labeled cells containing CFP or YFP, as previously described (Barda-Saad et al, 2005). […] Bleed-through components were calculated as a function of the intensity of the expressed fluorescent proteins with data gathered from single-labeled cell lines. By using the intensity measured pixel by pixel through the different filter sets, as well as cross-talk elements that were isolated from the control, single-labeled cells, the measured FRET was corrected and the actual FRET efficiency at every pixel was determined. The relative FRET efficiency (FRETeff) was calculated on a pixel-by-pixel basis with the following equation: FRETeff=FRETcorr/(FRETcorr+donor)×100%, where FRETcorr is the pixel intensity in the corrected FRET image, and donor is the intensity of the corresponding pixel in the appropriate donor channel image. To increase the reliability of the calculations and to prevent low-level noise from distorting the calculated ratio, the inventors excluded pixels below 50 intensity units, as well as saturated pixels from the calculations, and set their intensities to zero. […] The FRET efficiency in the negative control system was measured and calculated in the same manner as that in the main experiment. […]

T1 sequence (P42768 whole entry R34Q/K230R): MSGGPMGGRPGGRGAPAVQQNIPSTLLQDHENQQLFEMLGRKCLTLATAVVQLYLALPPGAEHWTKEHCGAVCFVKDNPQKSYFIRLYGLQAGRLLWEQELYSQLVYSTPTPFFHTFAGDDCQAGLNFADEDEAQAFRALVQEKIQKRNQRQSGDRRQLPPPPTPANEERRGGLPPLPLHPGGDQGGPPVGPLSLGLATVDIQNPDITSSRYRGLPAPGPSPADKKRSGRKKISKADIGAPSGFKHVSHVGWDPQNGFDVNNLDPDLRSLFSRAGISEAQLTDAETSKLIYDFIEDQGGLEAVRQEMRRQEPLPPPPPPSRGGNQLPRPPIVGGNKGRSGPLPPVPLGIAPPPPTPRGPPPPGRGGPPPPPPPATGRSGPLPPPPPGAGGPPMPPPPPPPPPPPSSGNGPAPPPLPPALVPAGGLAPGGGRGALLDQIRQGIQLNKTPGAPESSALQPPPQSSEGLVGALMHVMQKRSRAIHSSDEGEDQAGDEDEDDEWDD
T1 sequence (O43516 whole entry partner): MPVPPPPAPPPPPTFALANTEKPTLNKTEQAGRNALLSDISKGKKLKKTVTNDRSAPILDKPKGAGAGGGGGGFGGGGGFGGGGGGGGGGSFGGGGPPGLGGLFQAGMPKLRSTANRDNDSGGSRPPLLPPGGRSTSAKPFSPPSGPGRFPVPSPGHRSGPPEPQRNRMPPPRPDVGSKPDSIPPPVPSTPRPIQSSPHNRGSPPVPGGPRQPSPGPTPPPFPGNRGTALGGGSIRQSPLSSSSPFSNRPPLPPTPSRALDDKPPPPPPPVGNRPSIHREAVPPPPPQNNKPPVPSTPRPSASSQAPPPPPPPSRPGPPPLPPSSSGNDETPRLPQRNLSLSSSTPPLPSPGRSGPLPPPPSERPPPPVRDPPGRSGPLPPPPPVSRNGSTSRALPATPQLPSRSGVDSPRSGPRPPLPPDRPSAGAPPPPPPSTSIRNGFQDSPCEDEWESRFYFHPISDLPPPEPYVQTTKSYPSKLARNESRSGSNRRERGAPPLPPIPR

Structure (SMILES)	lymphocyte activation (CD69, activated LFA-1) (PBMCs)	mean cell displacement (Jurkat T cells)	average FRET efficiency (WIP-WASp interaction)
CC(=O)N[C@H]1C[C@@H](c2ccc3c(c2)nnn3C)O[C@@H](c2ccc(Cl)cc2)C1 [SMC #6, N-[(2R,4R,6S)-2-(4-chlorophenyl)-6-(1-methylbenzotriazol-5-yl)oxan-4-yl]acetamide]	upregulation of lymphocyte activation	29.52±2.96	22.7±1.4%
Cc1ccccc1N(CC(=O)NCc1ccccc1)C(=O)CCC(=O)Nc1nccs1 [SMC #33, N′-[2-(benzylamino)-2-oxoethyl]-N′-(2-methylphenyl)-N-(1,3-thiazol-2-yl)butanediamide]	upregulation of lymphocyte activation	32.92±4.28	21.4±1.4%
CC1CCCC(C)N1C(=O)CSc1nnc(COc2cccc3cccnc23)o1 (stereo not drawn) [SMC #34, 1-(2,6-dimethylpiperidin-1-yl)-2-[[5-(quinolin-8-yloxymethyl)-1,3,4-oxadiazol-2-yl]sulfanyl]ethanone]	upregulation of lymphocyte activation	48.91±6	23.8±1.1%
